Reference: patent publication US9017654B2, “Preparation for vaccination, vaccination method and use of a vaccination preparation” (priority 2004, dated 2015)

Columns and labels:
[1] = test system: CFSE-marked syngenic spleen cells charged with SGP peptide (target cells for the CTLs); assay: In vivo killer assay; design: species or system mice; settings: for specific reaction (FIG. 2, functionality of transcutaneously activated CTL): transcutaneous treatment, in vivo killer assay 6 days after immunisation
Description: The specific cytotoxic functionality of the activated cells was determined by means of what is known as an in vivo killer assays 6 days after the last immunisation. For this purpose spleen cells marked with CFSE (5,6-carboxyfluorescein diacetate succinimidylester, Molecular Probes) from syngenic mice were used as target cells for the cytotoxic T cells (CTLs). Half of the cells were dyed with 3 μM CFSE, the other half with 0.3 μM CFSE. The cells marked with 3 μM CFSE were charged with the synthetic SGP peptide (10 μM peptide; 40×10^6 cells per ml ISC medium; 1 h; 37° C.) and these were then washed twice with medium and twice with PBS. The cells marked with 0.3 μM CFSE were only incubated in ISC medium and also washed. The cells were mixed in a ratio of 1:1 and the mice were injected in vivo with 15×10^6 cells in 300 μl PBS in each case. After 18 h the mice were killed and the spleen cells removed and flow cytometrically analysed. The CFSE-positive cells were counted in a FACS-Canto flow cytometer. The specific lysis resulted from the ratio of cell counts of the cells charged with peptide and strongly marked with CFSE and the cells that were not charged with peptide and were weakly marked with CFSE. Since the two cell populations had been used in a ratio of 1:1 the number of cells not charged with peptide tallies with the original number of cells charged with peptide. The specific lysis is then calculated as follows:
[formula] [formula] CFSE Marking
The spleen cells were prepared as described above. Following ACK lysis the cells were resuspended in 10 ml PBS, counted and adjusted to 2×10^7 cells per ml. The cell suspension was mixed with an adequate volume of a 6 μM or 0.6 μM CFSE solution (in PBS) and incubated for 4 min at 37° C. The reaction was then stopped following addition of double the volume of ISC medium supplemented with 10% foetal calf serum (FCS). The cells were washed twice with FCS-free medium and counted.
To determine the functionality of the activated cells an in vivo killer assay was carried out 6 days after immunisation. For this purpose syngenic spleen cells marked with a high CFSE concentration were charged with peptide, mixed 1:1 with cells marked with a weak CFSE concentration and not charged with peptide and transferred i.v. into the mice. […] The fluorescence of the spleen cells in the FL-1 channel (CFSE) can be seen in each case. The lysis was calculated to the number of uncharged cells and is given in percent (B).
To determine the functionality of the activated cells an in vivo killer assay was carried out 6 days after immunisation. […] The fluorescence of the spleen cells in the FL-1 channel (CFSE) can be seen in each case. The specific lysis was calculated to the number of uncharged cells and is given in percent.

[2] = test system: TCR transgenic cytotoxic T cells (CTL), CD45.1-positive CD8+; assay: Analysis of the number of adoptively transferred transgenic cytotoxic T cells (CTL) in blood/spleen after immunisation (flow cytometry); assay type: in vivo, mice
From the text: In this model a defined transgenic, which codes for a specific T cell receptor that recognises a specific MHC class I ligand ([…] (SEQ ID NO: 23); abbreviated to SGP) from the adenovirus type 5 in the context of MHC class I (H2-D^b), was introduced into mice. As already characterised by the inventors [“M. Hofmann, M. Radask, G. Rechtsteiner, K. Wiemann, M. Grander, U. Bien-Gräter, R. Offfringa, R.E.M. Toes, H.G. Rammensee, H. Schild; T cell avidity determines the level of CTL activation; Eur. J. Immunol. 2004: 34, 1798 to 1806”], the cytotoxic T cells (CTL) from these animals were only activated if they came into contact with this MHC class I ligand SGP in the context of H2-D^b. To be able to follow the activation of this CTL in the recipient animal the non-activated (naïve) CTL from transgenic donor mice was intravenously (i.v.) injected into syngenic recipient mice which differed in the allele of a lymphocyte marker (CD45.1 on transgenic cells or CD45.2 on cells of the recipient mice). […]
To measure the proliferation of the adoptively transferred cells blood was taken from the tail vein of the mice 4 days after the last immunisation and the blood sample was analysed flow cytometrically. […] For flow cytometric analysis of the cells they were stained with fluorescence-marked antibodies (anti-CD8 APC-Cy7-conjugated, anti-CD45.1 PE-conjugated (commercially available from Becton-Dickinson Pharmingen, Hamburg)) and, more precisely, for 30 min in 50 μl FACS buffer on ice in 96-well circular bottomed plates. The cells were washed twice with FACS buffer and analysed in a FACS-canto flow cytometer (Becton-Dickinson Pharmingen, Hamburg). […]
The transgenic CD8^+ cell content in the total population of CD8^+ cells was flow cytometrically determined in the blood or spleen. […] The fluorescence in the FL-2 channel (PE) of the CD8^+ lymphocytes can be seen in each case. […] In all mice the transgenic CD8^+ cells content prior to immunisation and 4 days after immunisation was determined in the spleen (A).

Question: For CC(C)Cn1cnc2c(N)nc3ccccc3c21 [imiquimod, 1-(2-methylpropyl-)1H-imidazo[4,5-c]quinolin-4-amine, reference compound], which “specific reaction (FIG. 2, functionality of transcutaneously activated CTL)” value [1] is on record?
Answer: The value was “did not exhibit a specific reaction”.

Question: What does the source list for “SGPSNTPPEI (Adenovirus type 5) [peptide, MHC class I ligand (H2-Db) from the E1A protein of adenovirus type 5, synthetically produced]”?
Answer: % transgenic CD8+ in total CD8+, Day 4 Blood ([2]; Group 3: 50 μg peptide (i.d.) alone, day 4, blood): 4.38%; % transgenic CD8+ in total CD8+, Day 6 Spleen ([2]; Group 3: 50 μg peptide (i.d.) alone, day 6, spleen): 2.04%; increase in transgenic cells ([2]; peptide applied on its own (without additives, adjuvants)): only a marginal increase; Specific lysis (%) ([1]; Group 3: 50 μg peptide (i.d.) alone, 6 days after immunisation): 3.51%; functional activation of the CTL ([1]; immunisation with peptide only (group Mouse 3), FIG. 1B): does not lead to functional activation; specific reaction (FIG. 2, functionality of transcutaneously activated CTL) [1]: did not exhibit a specific reaction
